Activity calls are given as the source filed them. No cut-off for these calls is given here.
What was measured:
Cricetulus griseus [1] = organism: Cricetulus griseus; test: Effect of the compound on hamster hepatic N-arylhydroxamic acid N,O-acyltransferase activity
[2] = AHAT-catalyzed transacetylation rate at 0.5-1.0 concentration; No effect; format: functional
[3] = Effect for methylthio adduct formation at 1 mM concentration; format: functional
[4] = Effect for methylthio adduct formation at 2 mM concentration; format: functional
Cricetinae gen. sp. [5] = test: Effect for methylthio adduct formation in presence of 0.1 mM N-hydroxy-4-aminobiphenyl and 10 mM N-acetylmethioninein hamster hepatic AHAT preparation at 30 min; format: functional, Cricetulus griseus
Rattus norvegicus = organism: Rattus norvegicus; test: Transacetylation rate in rat hepatic AHAT preparation; format: functional
[6] = AHAT-catalyzed transacetylation rate at 0.5-1.0 concentration; format: functional
[7] = Compound inhibit the AHAT-catalyzed transacetylation activity; Active; format: functional
Cricetinae gen. sp. [8] = test: Transacetylation rate in hamster hepatic AHAT preparation; format: functional, Cricetulus griseus
Cricetulus griseus [9] = organism: Cricetulus griseus; test: Effect of the compound on hamster hepatic N,O-acyltransferase (AHAT) activity; format: functional

Compound	Activity (Cricetulus griseus [1]) [%]	Reduction [3] [%]	Reduction [4] [%]	Activity (Rattus norvegicus)	also measured
CC(=O)N(O)CCCc1ccccc1	< 1	–	–	–	–
CC(=O)N(O)C1CCC(c2ccccc2)CC1 (stereo unspecified)	< 1	13	23	–	Activity [2]: inactive
CC(=O)N(O)c1ccc(-c2ccccc2)cc1	–	–	–	4.99 nM/min	Activity (Cricetinae gen. sp. [5]): 120 nM; Activity [6]: 10%; Activity [7]: Active; Activity (Cricetinae gen. sp. [8]): 9.14 nM/min
CC(=O)N(O)Cc1ccccc1	< 1	–	–	–	–
CC(=O)N(O)CCCCc1ccccc1	< 1	–	–	0.73 nmol/mg/min	–
CC(=O)N(O)CCc1ccccc1	–	8	17	–	Activity (Cricetulus griseus [9]): < 1%

Source: ChEMBL document CHEMBL1121951, “Synthesis and evaluation of N-(phenylalkyl)acetohydroxamic acids as potential substrates for N-arylhydroxamic acid N,O-acyltransferase” (1982)
